Assay results reported in patent publication US8680012B2, “4-phenyl-pyrane-3,5-diones,4-phenyl-thiopyrane-3,6-diones and cyclohexanetriones as novel herbicides” (Syngenta Crop Protection LLC, priority 2006, dated 2014).

Legend:
Type in all cases: in vivo
[1] = test system: Echinochloa crus-galli (ECHCG); assay: Example B pre-emergence herbicidal activity, glasshouse pot test; conditions: 312 h, evaluated after 13 days, read-out: Pre-emergence activity ECHCG (100=total damage to plant; 0=no damage to plant); for pest or weed control at 1000 g/ha: rate 1000 g/ha
Procedure, shortened: (§1)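 After sowing in standard soil, pots were cultivated 1 day (pre-emergence) or 8 days (post-emergence), then treated with an aqueous spray of the formulated active ingredient (acetone/water 50:50, 0.5% Tween 20). Phytotoxicity was assessed on a 0–100 scale at 13 days.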

[2] = test system: Amaranthus retroflexus (AMARE); assay: as above; conditions: 312 h, evaluated after 13 days, read-out: Pre-emergence activity AMARE (100=total damage to plant; 0=no damage to plant); for pest or weed control at 1000 g/ha: rate 1000 g/ha
Procedure, shortened: as §1

Solanum nigrum (SOLNI) [3] = assay: as above; conditions: 312 h, evaluated after 13 days, read-out: Pre-emergence activity SOLNI (100=total damage to plant; 0=no damage to plant); for pest or weed control at 1000 g/ha: rate 1000 g/ha
Procedure, shortened: as §1

Setaria faberi (SETFA) [4] = assay: as above; conditions: 312 h, evaluated after 13 days, read-out: Pre-emergence activity SETFA (100=total damage to plant; 0=no damage to plant); for pest or weed control at 1000 g/ha: rate 1000 g/ha
Procedure, shortened: as §1

[5] = test system: Alopecurus myosuroides (ALOMY); assay: as above; conditions: 312 h, evaluated after 13 days, read-out: Pre-emergence activity ALOMY (100=total damage to plant; 0=no damage to plant); for pest or weed control at 1000 g/ha: rate 1000 g/ha
Procedure, shortened: as §1

Avena fatua (AVEFA) [6] = assay: as above; conditions: 312 h, evaluated after 13 days, read-out: Pre-emergence activity AVEFA (100=total damage to plant; 0=no damage to plant); for pest or weed control at 1000 g/ha: rate 1000 g/ha
Procedure, shortened: as §1

[7] = test system: Echinochloa crus-galli (ECHCG); assay: Example B post-emergence herbicidal activity, glasshouse pot test; conditions: 312 h, evaluated after 13 days, read-out: Post-emergence activity ECHCG (100=total damage to plant; 0=no damage to plant); for pest or weed control at 1000 g/ha: rate 1000 g/ha
Procedure, shortened: as §1

[8] = test system: Amaranthus retroflexus (AMARE); assay: as above; conditions: 312 h, evaluated after 13 days, read-out: Post-emergence activity AMARE (100=total damage to plant; 0=no damage to plant); for pest or weed control at 1000 g/ha: rate 1000 g/ha
Procedure, shortened: as §1

Solanum nigrum (SOLNI) [9] = assay: as above; conditions: 312 h, evaluated after 13 days, read-out: Post-emergence activity SOLNI (100=total damage to plant; 0=no damage to plant); for pest or weed control at 1000 g/ha: rate 1000 g/ha
Procedure, shortened: as §1

Setaria faberi (SETFA) [10] = assay: as above; conditions: 312 h, evaluated after 13 days, read-out: Post-emergence activity SETFA (100=total damage to plant; 0=no damage to plant); for pest or weed control at 1000 g/ha: rate 1000 g/ha
Procedure, shortened: as §1

[11] = test system: Alopecurus myosuroides (ALOMY); assay: as above; conditions: 312 h, evaluated after 13 days, read-out: Post-emergence activity ALOMY (100=total damage to plant; 0=no damage to plant); for pest or weed control at 1000 g/ha: rate 1000 g/ha
Procedure, shortened: as §1

Avena fatua (AVEFA) [12] = assay: as above; conditions: 312 h, evaluated after 13 days, read-out: Post-emergence activity AVEFA (100=total damage to plant; 0=no damage to plant); for pest or weed control at 1000 g/ha: rate 1000 g/ha
Procedure, shortened: as §1

Compound | pest or weed control at 1000 g/ha [1] [%] | pest or weed control at 1000 g/ha [2] [%] | pest or weed control at 1000 g/ha (Solanum nigrum (SOLNI) [3]) [%] | pest or weed control at 1000 g/ha (Setaria faberi (SETFA) [4]) [%] | pest or weed control at 1000 g/ha [5] [%] | pest or weed control at 1000 g/ha (Avena fatua (AVEFA) [6]) [%] | pest or weed control at 1000 g/ha [7] [%] | pest or weed control at 1000 g/ha [8] [%] | pest or weed control at 1000 g/ha (Solanum nigrum (SOLNI) [9]) [%] | pest or weed control at 1000 g/ha (Setaria faberi (SETFA) [10]) [%] | pest or weed control at 1000 g/ha [11] [%] | pest or weed control at 1000 g/ha (Avena fatua (AVEFA) [12]) [%] | other results
Cc1ccc(-c2ccc(Cl)cc2)cc1C1=C(O)[C@@]2(C)CC[C@H](O2)C1=O (single isomer, unassigned) [Compound A-30] | 100 | 0 | 0 | 100 | 80 | 70 | 100 | 70 | 70 | 100 | 90 | 100 | –
CCc1ccc(-c2ccc(Cl)cc2)cc1C1=C(O)[C@@]2(C)CC[C@H](O2)C1=O (single isomer, unassigned) [Compound A-29] | 100 | 0 | 0 | 100 | 90 | 80 | 100 | 40 | 60 | 100 | 100 | 100 | –
C#CCOC(=O)OC1=C(c2cc(-c3ccc(Cl)cc3)ccc2CC)C(=O)C(C)(C)OC1(C)C [Compound D-15] | 100 | 0 | 0 | 100 | 80 | 60 | 100 | 0 | 0 | 100 | 80 | 60 | –
CCc1ccc(-c2ccc(Cl)c(F)c2)cc1C1=C(O)C(C)(C)C(=O)C(C)(C)C1=O [Compound B-12] | – | – | – | – | – | – | – | – | – | – | – | – | pest or weed control at 250 g/ha ([1]; rate 250 g/ha): 30%; pest or weed control at 250 g/ha ([2]; rate 250 g/ha): 0%; pest or weed control at 250 g/ha (Solanum nigrum (SOLNI) [3]; rate 250 g/ha): 0%; pest or weed control at 250 g/ha (Setaria faberi (SETFA) [4]; rate 250 g/ha): 50%; pest or weed control at 250 g/ha ([5]; rate 250 g/ha): 0%; pest or weed control at 250 g/ha (Avena fatua (AVEFA) [6]; rate 250 g/ha): 0%; pest or weed control at 250 g/ha ([7]; rate 250 g/ha): 100%; pest or weed control at 250 g/ha ([8]; rate 250 g/ha): 30%; pest or weed control at 250 g/ha (Solanum nigrum (SOLNI) [9]; rate 250 g/ha): 0%; pest or weed control at 250 g/ha (Setaria faberi (SETFA) [10]; rate 250 g/ha): 90%; pest or weed control at 250 g/ha ([11]; rate 250 g/ha): 60%; pest or weed control at 250 g/ha (Avena fatua (AVEFA) [12]; rate 250 g/ha): 0%
CCc1ccc(-c2ccc(Cl)cc2)cc1C1=C(OC(=O)COC)C(C)(C)OC(C)(C)C1=O [Compound D-12] | 100 | 0 | 0 | 100 | 90 | 60 | 100 | 0 | 0 | 100 | 90 | 90 | –
CCc1ccc(-c2ccc(Cl)cc2)cc1C1=C(OC(=O)OC)C(C)(C)OC(C)(C)C1=O [Compound D-16] | 90 | 0 | 0 | 100 | 50 | 0 | 100 | 0 | 0 | 100 | 90 | 20 | –
